Results as given in patent US20220289679A1, “HETEROCYCLIC COMPOUND” (Takeda Pharmaceutical Company Limited, priority 2019, published 2022).

These molecules were tested against T1, human GCS (glucosylceramide synthase) (Homo sapiens, UniProt Q16739) (assay: Glucosylceramide Synthase (GCS) Assay). Conditions: test compound 10 μM; microsome fraction of Expi293F cells expressing human GCS; 1.7 μM UDP-glucose, 3 μM C8 ceramide; room temperature 60 min; C8 glucosylceramide by Rapidfire MS/MS; read-out: GCS enzyme inhibitory rate at 10 μM (%).
T1 construct: made in house; host or cells: Expi293F cells (transient expression; microsome fraction)
T1 sequence (Q16739 1-394): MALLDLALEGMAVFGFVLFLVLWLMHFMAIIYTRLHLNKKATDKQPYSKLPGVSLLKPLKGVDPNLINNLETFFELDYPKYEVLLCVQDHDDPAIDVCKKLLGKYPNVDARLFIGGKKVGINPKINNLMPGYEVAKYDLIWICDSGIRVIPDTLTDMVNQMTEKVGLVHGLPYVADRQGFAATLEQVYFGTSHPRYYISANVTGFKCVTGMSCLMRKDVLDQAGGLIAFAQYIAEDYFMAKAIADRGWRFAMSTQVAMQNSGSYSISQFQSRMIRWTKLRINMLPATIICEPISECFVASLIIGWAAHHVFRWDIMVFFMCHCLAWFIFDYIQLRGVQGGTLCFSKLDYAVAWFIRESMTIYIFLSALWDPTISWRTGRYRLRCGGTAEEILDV
Assay type: biochemical
In short: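 Test compounds were run at a final 10 μM against liposomal C8 ceramide (3 μM) and UDP-glucose at its Km (1.7 μM). Human GCS came as microsomes from transfected Expi293F cells, incubated 60 min at room temperature, pH 7.5. Product measured by RapidFire MS/MS; 0% and 100% inhibition were DMSO and no-enzyme wells.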

| SMILES | inhibition at 10 µM [%] |
| --- | --- |
| CC(C)(O)c1ccc(NC(=O)c2cccn(-c3ccccc3OCC(F)(F)F)c2=O)cc1 [Example 63] | 100 |
| O=C(Nc1ccc(OCCC(F)(F)F)nc1)c1cccn(-c2ccc(F)cc2OCC(F)(F)F)c1=O [Example 64, 1-[4-fluoro-2-(2,2,2-trifluoroethoxy)phenyl]-2-oxo-N-[6-(3,3,3-trifluoropropoxy)pyridin-3-yl]-1,2-dihydropyridine-3-carboxamide] | 99 |
| O=C(Nc1cnn(CC2(F)CC2)c1)c1cccn(-c2ccc(F)cc2OCC(F)(F)F)c1=O [Example 66, N-{1-[(1-fluorocyclopropyl)methyl]-1H-pyrazol-4-yl}-1-[4-fluoro-2-(2,2,2-trifluoroethoxy)phenyl]-2-oxo-1,2-dihydropyridine-3-carboxamide] | 60 |
| O=C(Nc1ccc(C2(O)CC2)cc1)c1cccn(-c2ccc(F)cc2OCC(F)(F)F)c1=O [Example 69, 1-[4-fluoro-2-(2,2,2-trifluoroethoxy)phenyl]-N-[4-(1-hydroxycyclopropyl)phenyl]-2-oxo-1,2-dihydropyridine-3-carboxamide] | 99 |
| CC(C)(O)COc1ccc(NC(=O)c2cccn(-c3ccccc3OCC(F)(F)F)c2=O)cc1 [Example 70, N-[4-(2-hydroxy-2-methylpropoxy)phenyl]-2-oxo-1-[2-(2,2,2-trifluoroethoxy)phenyl]-1,2-dihydropyridine-3-carboxamide] | 97 |
| O=C(Nc1ccc(COCC(F)(F)F)nc1)c1cccn(-c2ccc(F)cc2OCC(F)(F)F)c1=O [Example 73, 1-[4-fluoro-2-(2,2,2-trifluoroethoxy)phenyl]-2-oxo-N-{6-[(2,2,2-trifluoroethoxy)methyl]pyridin-3-yl}-1,2-dihydropyridine-3-carboxamide] | 99 |
| O=C(Nc1ccc(COCC(F)(F)F)nc1)c1cccn(-c2ccccc2OCC(F)(F)F)c1=O [Example 74, 2-oxo-N-{6-[(2,2,2-trifluoroethoxy)methyl]pyridin-3-yl}-1-[2-(2,2,2-trifluoroethoxy)phenyl]-1,2-dihydropyridine-3-carboxamide] | 99 |
| O=C(Nc1ccc(OCC(F)(F)F)nc1)c1cccn(-c2ccnnc2OCC(F)(F)F)c1=O [Example 79, 2-oxo-1-[3-(2,2,2-trifluoroethoxy)pyridazin-4-yl]-N-[6-(2,2,2-trifluoroethoxy)pyridin-3-yl]-1,2-dihydropyridine-3-carboxamide] | 87 |
| N#CCc1ccc(NC(=O)c2cccn(-c3ccc(F)cc3OCC(F)(F)F)c2=O)cn1 [Example 80, N-[6-(cyanomethyl)pyridin-3-yl]-1-[4-fluoro-2-(2,2,2-trifluoroethoxy)phenyl]-2-oxo-1,2-dihydropyridine-3-carboxamide] | 71 |
| CC(C)(O)c1ccc(NC(=O)c2cccn(-c3ccccc3OCC(F)(F)F)c2=O)cn1 [Example 84, N-[6-(2-hydroxypropan-2-yl)pyridin-3-yl]-2-oxo-1-[2-(2,2,2-trifluoroethoxy)phenyl]-1,2-dihydropyridine-3-carboxamide] | 98 |
| CC(C)(O)c1ccc(NC(=O)c2cccn(-c3ccc(F)cc3OCC(F)(F)F)c2=O)cn1 [Example 85, 1-[4-fluoro-2-(2,2,2-trifluoroethoxy)phenyl]-N-[6-(2-hydroxypropan-2-yl)pyridin-3-yl]-2-oxo-1,2-dihydropyridine-3-carboxamide] | 94 |
| CC(C)(C#N)c1ccc(NC(=O)c2cccn(-c3ccc(F)cc3OCC(F)(F)F)c2=O)cn1 [Example 87, N-[6-(2-cyanopropan-2-yl)pyridin-3-yl]-1-[4-fluoro-2-(2,2,2-trifluoroethoxy)phenyl]-2-oxo-1,2-dihydropyridine-3-carboxamide] | 99 |

More lines, now with the values ahead:

| inhibition at 10 µM [%] | SMILES |
| --- | --- |
| 95 | N#CCc1ccc(NC(=O)c2cccn(-c3ccc(F)cc3OCC(F)(F)F)c2=O)cc1 [Example 57, N-[4-(cyanomethyl)phenyl]-1-[4-fluoro-2-(2,2,2-trifluoroethoxy)phenyl]-2-oxo-1,2-dihydropyridine-3-carboxamide] |
| 99 | CC(C)(O)c1ccc(NC(=O)c2cccn(-c3ccc(F)cc3OCC(F)(F)C(F)(F)F)c2=O)cc1 [Example 58, 1-[4-fluoro-2-(2,2,3,3,3-pentafluoropropoxy)phenyl]-N-[4-(2-hydroxypropan-2-yl)phenyl]-2-oxo-1,2-dihydropyridine-3-carboxamide] |
| 92 | CC(C)(O)COc1ccc(NC(=O)c2cccn(-c3ccc(F)cc3OCC(F)(F)F)c2=O)cc1 [Example 60, 1-[4-fluoro-2-(2,2,2-trifluoroethoxy)phenyl]-N-[4-(2-hydroxy-2-methylpropoxy)phenyl]-2-oxo-1,2-dihydropyridine-3-carboxamide] |
| 95 | CC(C)(O)Cc1ccc(NC(=O)c2cccn(-c3ccc(F)cc3OCC(F)(F)F)c2=O)cc1 [Example 61, 1-[4-fluoro-2-(2,2,2-trifluoroethoxy)phenyl]-N-[4-(2-hydroxy-2-methylpropyl)phenyl]-2-oxo-1,2-dihydropyridine-3-carboxamide] |
| 77 | O=C(Nc1cnn(CC(F)(F)C(F)(F)F)c1)c1cccn(-c2ccc(F)cc2OCC(F)(F)F)c1=O [Example 62, 1-[4-fluoro-2-(2,2,2-trifluoroethoxy)phenyl]-2-oxo-N-[1-(2,2,3,3,3-pentafluoropropyl)-1H-pyrazol-4-yl]-1,2-dihydropyridine-3-carboxamide] |
| 89 | CC(C)(O)COc1cc(F)ccc1-n1cccc(C(=O)Nc2ccc(OCC(F)(F)F)nc2)c1=O [Example 67, 1-[4-fluoro-2-(2-hydroxy-2-methylpropoxy)phenyl]-2-oxo-N-[6-(2,2,2-trifluoroethoxy)pyridin-3-yl]-1,2-dihydropyridine-3-carboxamide] |
| 97 | Cc1cccc(OCC(F)(F)F)c1-n1cccc(C(=O)Nc2ccc(C(C)(C)O)cc2)c1=O [Example 68, N-[4-(2-hydroxypropan-2-yl)phenyl]-1-[2-methyl-6-(2,2,2-trifluoroethoxy)phenyl]-2-oxo-1,2-dihydropyridine-3-carboxamide] |
| 100 | O=C(Nc1ccc(C(O)(C(F)F)C(F)F)cc1)c1cccn(-c2ccccc2OCC(F)(F)F)c1=O [Example 77, 2-oxo-N-[4-(1,1,3,3-tetrafluoro-2-hydroxypropan-2-yl)phenyl]-1-[2-(2,2,2-trifluoroethoxy)phenyl]-1,2-dihydropyridine-3-carboxamide] |
| 100 | O=C(Nc1ccc(C(O)(C(F)F)C(F)F)cc1)c1cccn(-c2ccc(F)cc2OCC(F)(F)F)c1=O [Example 78, 1-[4-fluoro-2-(2,2,2-trifluoroethoxy)phenyl]-2-oxo-N-[4-(1,1,3,3-tetrafluoro-2-hydroxypropan-2-yl)phenyl]-1,2-dihydropyridine-3-carboxamide] |
| 99 | CC(C)(O)c1ccc(NC(=O)c2cccn(-c3ccccc3OCC(F)(F)F)c2=O)cc1F [Example 82, N-[3-fluoro-4-(2-hydroxypropan-2-yl)phenyl]-2-oxo-1-[2-(2,2,2-trifluoroethoxy)phenyl]-1,2-dihydropyridine-3-carboxamide] |
| 98 | CC(C)(O)c1ccc(NC(=O)c2cccn(-c3ccc(F)cc3OCC(F)(F)F)c2=O)cc1F [Example 83, N-[3-fluoro-4-(2-hydroxypropan-2-yl)phenyl]-1-[4-fluoro-2-(2,2,2-trifluoroethoxy)phenyl]-2-oxo-1,2-dihydropyridine-3-carboxamide] |
| 88 | N#CCc1ccc(NC(=O)c2cccn(-c3ccccc3OCC(F)(F)F)c2=O)cn1 [Example 86, N-[6-(cyanomethyl)pyridin-3-yl]-2-oxo-1-[2-(2,2,2-trifluoroethoxy)phenyl]-1,2-dihydropyridine-3-carboxamide] |
| 100 | CC(C)(C#N)c1ccc(NC(=O)c2cccn(-c3ccccc3OCC(F)(F)F)c2=O)cn1 [Example 88, N-[6-(2-cyanopropan-2-yl)pyridin-3-yl]-2-oxo-1-[2-(2,2,2-trifluoroethoxy)phenyl]-1,2-dihydropyridine-3-carboxamide] |
| 100 | O=C(Nc1ccc(C(O)(C(F)(F)F)C(F)(F)F)cc1)c1cccn(-c2ccccc2OCC(F)(F)F)c1=O [Example 89, N-[4-(1,1,1,3,3,3-hexafluoro-2-hydroxypropan-2-yl)phenyl]-2-oxo-1-[2-(2,2,2-trifluoroethoxy)phenyl]-1,2-dihydropyridine-3-carboxamide] |
| 90 | CC(C)(O)c1ccc(NC(=O)c2cccn(-c3ccnnc3OCC(F)(F)F)c2=O)cc1 [Example 90, N-[4-(2-hydroxypropan-2-yl)phenyl]-2-oxo-1-[3-(2,2,2-trifluoroethoxy)pyridazin-4-yl]-1,2-dihydropyridine-3-carboxamide] |
| 89 | COC(C)(C)c1ccc(NC(=O)c2cccn(-c3ccc(F)cc3OCC(F)(F)F)c2=O)cn1 [Example 91, 1-[4-fluoro-2-(2,2,2-trifluoroethoxy)phenyl]-N-[6-(2-methoxypropan-2-yl)pyridin-3-yl]-2-oxo-1,2-dihydropyridine-3-carboxamide] |
